Seven compounds from patent publication US8927538B2, “Carbazole linked pyrrolo[2,1-c][1,4]benzodiazefine hybrids as potential anticancer agents and process for the preparation thereof” (Council of Scientific & Industrial Research, priority 2010, dated 2015) can be followed below.

One test deals with Colo-205. Description: ACTREC in vitro cytotoxicity, Colo-205. It counts as cell-based. On the procedure:
(§1) In vitro biological activity studies were carried out at the Advance Center for Treatment Research & Education in Cancer.

A further test deals with KB. The test can be described thus: ACTREC in vitro cytotoxicity, KB. It counts as cell-based. How it is done: as §1
A further test has as its system MCF7. Description: ACTREC in vitro cytotoxicity, MCF7. It counts as cell-based. How it is done: as §1
The next test concerns A-2780. Description: ACTREC in vitro cytotoxicity, A-2780. It counts as cell-based. Particulars: Ovary A-2780 (Table 4). How it is done: as §1
The next test concerns GURAV. Description: ACTREC in vitro cytotoxicity, GURAV. The test is classed as cell-based. How it is done:
as §1

For another test, the system named is Zr-75-1. The test can be described thus: ACTREC in vitro cytotoxicity, Zr-75-1. The test is classed as cell-based. On the procedure:
as §1

The next test has as its system Si-Ha. Description: ACTREC in vitro cytotoxicity, Si-Ha. It counts as cell-based. How it is done: as §1
In test [1] the test system is duplex-form calf thymus DNA (CT-DNA). Description: Thermal denaturation studies (DNA binding). Particulars: [PBD]:[DNA] molar ratio 1:5, CT-DNA 100 μM, ligand 20 μM; for ΔTm after incubation at 37 °C for 0 h: pH 7.00, 0 h; for ΔTm after incubation at 37 °C for 18 h: pH 7.00, 18 h. How it is done:
Compounds have been subjected to thermal denaturation studies with duplex-form calf thymus DNA (CT-DNA) using a modification of a reported procedure. Working solutions in aqueous buffer ([…] NaH2PO4/Na2HPO4, 1 mM Na2EDTA, pH 7.00±0.01) containing CT-DNA (100 μM in phosphate) and the PBD (20 μM) have been prepared by addition of concentrated PBD solutions in DMSO to obtain a fixed [PBD]/[DNA] molar ratio of 1:5. The DNA-PBD solutions have been incubated at 37° C. for 0 and 18 hrs prior to analysis. Samples have been monitored at 260 nm using a Beckman DU-800 spectrophotometer fitted with high performance temperature controller, and heated at 1° C. min^−1 in the 40-110° C. range. DNA helix→coil transition temperatures (Tm) have been obtained from the maxima in the d(A260)/dT derivative plots. Drug-induced alterations in DNA melting behavior are given by: […]Tm=Tm(DNA+PBD)-Tm(DNA alone), where the Tm value for the PBD-free CT-DNA is 68.5 […]0.01.
The DNA-binding for these C8-linked carbazole-PBD hybrids has been examined by thermal denaturation studies using calf thymus (CT) DNA. […] Data for 6a, 6b, 6c, 14a, 14b, and 14d and DC-81 are included in Table 5 for comparison.

A further test relates to HOP-62. Description: ACTREC in vitro cytotoxicity, HOP-62. It counts as cell-based. How it is done: as §1
The subject of another test is A-549. Description: ACTREC in vitro cytotoxicity, A-549. It counts as cell-based. Particulars: Lung A-549 (Table 4). On the procedure:
as §1

The next test relates to PC-3. Description: ACTREC in vitro cytotoxicity, PC-3. It counts as cell-based. How it is done: as §1

The GI50 is the concentration at which growth is held to half of that of the control. The low end stands for greater sensitivity of the cells, the high end for lower sensitivity of the cells. For the compound `COc1cc2c(cc1OCCCn1c3ccccc3c3ccccc31)N=C[C@@H]1CCCN1C2=O` [Compound 6a, 7-Methoxy-8-[3-(9H-9-carbazoly)propoxy]-(11aS)-1,2,3,11a-tetrahydro-5H-pyrrolo[2,1-c][1,4]-benzodiazepin-5-one], the GI50 in the test on Colo-205 (Colon Colo-205 (Table 4)) worked out at 1680 nM; in the test with Colo-205 (colon (Colo205)) it was 1680 nM; in the test with KB (Oral KB (Table 4)), 1870 nM; in the test with MCF7 (Breast MCF7 (Table 4)), 1850 nM; in the test on MCF7 (breast (MCF-7)), 1850 nM; with A-2780, 1510 nM. For the same compound, the GI50 turned out to be 1600 nM in the test with GURAV (Oral GURAV (Table 4)); 1890 nM in the test on Zr-75-1 (Breast Zr-75-1 (Table 4)); 1700 nM in the test with Si-Ha (Cervix Si-Ha (Table 4)); 1930 nM with HOP-62 (Lung HOP-62 (Table 4)); 1930 nM in the test on HOP-62 (non small cell lung (HOPO62)). In test [1], the “ΔTm after incubation at 37 °C for 0 h” value was found to be 4.2 °C. In test [1], the “ΔTm after incubation at 37 °C for 18 h” value came to 5.1 °C.

Regarding `COc1cc2c(cc1OCCCCn1c3ccccc3c3ccccc31)N=C[C@@H]1CCCN1C2=O` [Compound 6b, 7-Methoxy-8-[4-(9H-9-carbazoly)butoxy]-(11aS)-1,2,3,11a-tetrahydro-5H-pyrrolo[2,1-c][1,4]benzodiazepin-5-one], the GI50 in the test on Colo-205 (Colon Colo-205 (Table 4)) turned out to be 1700 nM; in the test with Colo-205 (colon (Colo205)), 1700 nM; in the test on KB (Oral KB (Table 4)), 1870 nM; in the test with MCF7 (Breast MCF7 (Table 4)), 2210 nM; in the test on A-2780, 1570 nM; with GURAV (Oral GURAV (Table 4)) it was 1600 nM. The GI50 in the test with Zr-75-1 (Breast Zr-75-1 (Table 4)) amounted to 1810 nM; in the test on Zr-75-1 (breast (Zr-75-1)), 1810 nM; in the test with Si-Ha (Cervix Si-Ha (Table 4)) it was 1700 nM; in the test on HOP-62 (Lung HOP-62 (Table 4)) it was 1930 nM; with HOP-62 (non small cell lung (HOPO62)), 1930 nM. Further, in test [1], the “ΔTm after incubation at 37 °C for 0 h” value was found to be 4.3 °C. In addition, the “ΔTm after incubation at 37 °C for 18 h” value in [1] turned out to be 4.8 °C.

Take `COc1cc2c(cc1OCCCCCCn1c3ccccc3c3ccccc31)N=C[C@@H]1CCCN1C2=O` [Compound 6d, 7-Methoxy-8-[6-(9H-9-carbazoly)hexyloxy]-(11aS)-1,2,3,11a-tetrahydro-5H-pyrrolo[2,1-c][1,4]-benzodiazepin-5-one]: the GI50 is 1620 nM in the test with Colo-205 (Colon Colo-205 (Table 4)); 1620 nM with Colo-205 (colon (Colo205)); 1950 nM in the test with KB (Oral KB (Table 4)); 1650 nM in the test with MCF7 (Breast MCF7 (Table 4)); 1650 nM in the test with MCF7 (breast (MCF-7)); 1700 nM with A-2780. Also, the GI50 with GURAV (Oral GURAV (Table 4)) amounted to 1710 nM; in the test on Zr-75-1 (Breast Zr-75-1 (Table 4)), 2140 nM; in the test with Si-Ha (Cervix Si-Ha (Table 4)) it was 1580 nM; in the test on HOP-62 (Lung HOP-62 (Table 4)), 1580 nM; with HOP-62 (non small cell lung (HOPO62)), 1580 nM.

For `COc1ccc(-c2ccc3c(c2)c2cc(-c4ccc(OC)cc4)ccc2n3CCCOc2cc3c(cc2OC)C(=O)N2CCC[C@H]2C=N3)cc1` [Compound 10d, 7-Methoxy-8-{3-[3,6-di(4-methoxyphenyl)-9H-9-carbazoly]propoxy}-(11aS)-1,2,3,11a-tetrahydro-5H-pyrrolo[2,1-c][1,4]-benzodiazepin-5-one], the 50% growth inhibitory concentration (GI50) in the test on Colo-205 (Colon Colo-205 (Table 4)) is 1700 nM; in the test on Colo-205 (colon (Colo205)), 1700 nM; with KB (Oral KB (Table 4)), 180 nM; in the test with MCF7 (Breast MCF7 (Table 4)), 130 nM; with MCF7 (breast (MCF-7)) it was 130 nM; in the test on A-2780, 150 nM. Besides, the GI50 stood at 170 nM in the test on Si-Ha (Cervix Si-Ha (Table 4)); 2100 nM in the test with A-549; 110 nM in the test with HOP-62 (Lung HOP-62 (Table 4)); 110 nM in the test with HOP-62 (non small cell lung (HOPO62)); 160 nM in the test on PC-3 (Prostate PC-3 (Table 4)).

With `COc1ccc(-c2ccc3c(c2)c2cc(-c4ccc(OC)cc4)ccc2n3CCCCOc2cc3c(cc2OC)C(=O)N2CCC[C@H]2C=N3)cc1` [Compound 10e, 7-Methoxy-8-{4-[3,6-di(4-methoxyphenyl)-9H-9-carbazoly]butoxy}-(11aS)-1,2,3,11a-tetrahydro-5H-pyrrolo[2,1-c][1,4]-benzodiazepin-5-one], the GI50 with Colo-205 (Colon Colo-205 (Table 4)) turned out to be 2900 nM; in the test on MCF7 (Breast MCF7 (Table 4)) it was 150 nM; in the test on MCF7 (breast (MCF-7)) it was 150 nM; in the test on A-2780 it was 2000 nM; in the test on Si-Ha (Cervix (Si-Ha)) it was 170 nM; with Si-Ha (Cervix Si-Ha (Table 4)) it was 170 nM. Also, the GI50 with PC-3 (Prostate PC-3 (Table 4)) and with PC-3 (prostate (PC-3)) was 160 nM throughout.

Turning to `COc1cc2c(cc1OCCCN1CCN(CCCCn3c4ccccc4c4ccccc43)CC1)N=C[C@@H]1CCCN1C2=O` [Compound 14b, 7-Methoxy-8-(3-{4-[4-(9H-9-carbazoly)butyloxy]piperazino}propyloxy)-(11aS)-1,2,3,11a-tetrahydro-5H-pyrrolo[2,1-c][1,4]benzodiazepin-5-one], the GI50 in the test with Colo-205 (Colon Colo-205 (Table 4)) amounted to 140 nM; in the test with Colo-205 (colon (Colo205)), 140 nM; in the test with KB (Oral KB (Table 4)), 140 nM; in the test on MCF7 (Breast MCF7 (Table 4)), 150 nM; in the test on MCF7 (breast (MCF-7)) it was 150 nM; in the test with A-2780, 110 nM. Also, the GI50 is 130 nM in the test with GURAV (Oral GURAV (Table 4)); 150 nM in the test with Zr-75-1 (Breast Zr-75-1 (Table 4)); 150 nM in the test on Zr-75-1 (breast (Zr-75-1)); 130 nM in the test with Si-Ha (Cervix Si-Ha (Table 4)); 140 nM in the test with HOP-62 (Lung HOP-62 (Table 4)); 140 nM in the test on HOP-62 (non small cell lung (HOPO62)). For the same compound, in test [1], the “ΔTm after incubation at 37 °C for 0 h” value was 7.8 °C. Further, in [1], the “ΔTm after incubation at 37 °C for 18 h” value was 8.5 °C.

Take `COc1cc2c(cc1OCCCCN1CCN(CCCCn3c4ccccc4c4ccccc43)CC1)N=C[C@@H]1CCCN1C2=O` [Compound 14d, 7-Methoxy-8-(4-{-4-[4-(9H-9-carbazoly)butyloxy]piperazino}butyloxy)-(11aS)-1,2,3,11a-tetrahydro-5H-pyrrolo[2,1-c][1,4]benzodiazepin-5-one]: the 50% growth inhibitory concentration (GI50) amounted to 160 nM in the test on Colo-205 (Colon Colo-205 (Table 4)); 160 nM in the test with Colo-205 (colon (Colo205)); 150 nM in the test on KB (Oral KB (Table 4)); 150 nM in the test on KB (oral (KB), text b39); 170 nM in the test on MCF7 (Breast MCF7 (Table 4)); 150 nM with MCF7 (breast (MCF-7)). Besides, the GI50 with A-2780 worked out at 160 nM; with GURAV (Oral GURAV (Table 4)) it was 170 nM; in the test on GURAV (oral (GURAV), text b39) it was 170 nM; with Zr-75-1 (Breast Zr-75-1 (Table 4)), 150 nM; with Zr-75-1 (breast (Zr-75-1)), 170 nM; with Si-Ha (Cervix Si-Ha (Table 4)) it was 170 nM. In the test with HOP-62 (Lung HOP-62 (Table 4)), this compound came in with a GI50 of 1820 nM. Further, the “ΔTm after incubation at 37 °C for 0 h” value in test [1] was determined as 7.9 °C. Besides, the “ΔTm after incubation at 37 °C for 18 h” value in test [1] is 8.4 °C.
